The source of these data is patent US10808230B2, “Selection methods for genetically-modified T cells” (BOARD OF REGENTS, THE UNIVERSITY OF TEXAS SYSTEM, priority 2015, dated 2020).

Holding throughout (format): cell-based, human
Series [1] has as its system TCD4, FoxP3. Put plainly: Selection or depletion of TCD4, FoxP3 in PBMC stimulated with anti-CD3/CD28 and IL-2 in presence of drug. As to conditions: for Selection of TCD4, FoxP3 in surviving population at lethal dose: freshly derived PBMC, day 7; for Selection or depletion of TCD4, FoxP3, dose dependence: thawed PBMC, 7 days. Here is the method:
(§1) Culture Conditions: Acellular stimulation was accomplished as previously described using soluble anti-CD3—30 ng/mL, anti-CD28—100 ng/mL, and human IL-2—50 IU/mL, as previously described. […] Acellular stimulation experiments received addition of toxic drug or treatment on the same day as stimulation.
Cultured T cells were washed in FACS staining solution[95] before surface antibody staining was performed in FACS staining solution with fluorochrome-conjugated antibodies at 4° C. for at least 30 minutes. Intracellular transcription factor and cytokine staining utilized the FoxP3/transcription factor staining buffer set manufacturer's protocol (eBioscience, 00-5523-00), and was performed following surface staining. The BD FACSCalibur (BD Biosciences) analyzed most samples expressing FoxP3. Flow cytometry data analysis utilized FlowJo v 10.0.5 (Tree Star Inc., Ashland, Oreg.). Flow cytometric imaging of cells stained for phosphorylated antigens was accomplished using the ImageStreamX Mark II (Amnis, Seattle, Wash.) with the following protocol; after surface staining, samples were fixed in 100% methanol (Sigma) for 1 hour at 4° C. before washing and staining in FoxP3/transcription factor staining buffer set wash buffer as outlined by the manufacturer's protocol. Analysis of image cytometry data utilized Amnis IDEAS v 6.0.
Drug Selection of TCD4, FoxP3 by MTX Occurs in Part Through Toxicity. In order to determine how MTX contributes to the selection of TCD4, FoxP3, freshly derived PBMC were stimulated with anti-CD3/CD28 antibodies and IL-2 in the presence of cytotoxic drugs or lethal γ-irradiation. […] See Bar-Nun S. et al., Biochimica et biophysica acta 1983, 741(1):123-127. […] See Cao M. et al., International journal of radiation biology 2011, 87(1):71-80.

The subject of a further series is Treg. Description: Sorted Treg and Teff treated with drug for 7 days, co-cultured with AaPC to Day 21. To be noted: for Expression of CD25, CTLA-4, or loss of IL-2: Day 21; for Expression of Treg-specific marker LAP: Day 21, early drug treatment. The text has this:
Healthy donor derived peripheral blood from MDACC Blood Bank, Houston, Tex., was subjected to density gradient centrifugation to isolate mononuclear cells which were either rested in complete media (CM) or frozen as previously outlined. The use of rested or frozen peripheral blood derived mononuclear cells (PBMC) is outlined in each experiment. T cells from PBMC were stimulated using thawed OKT3 antibody-loaded K562 clone #4, an activating and propagating cell (AaPC). See Singh H, et al, PloS one 2013, 8(5). The presence of mycoplasma was tested in AaPC before stimulation of T cells. Cell counting was accomplished by 0.1% Trypan Blue (Sigma-Aldrich, T8154) exclusion using automated cell counting (Nexcelcom, Lawrence, Mass.). Cell Isolation was accomplished using magnetic bead based sorting with the CD4+, CD25+ Regulatory T Cell Isolation Kit following the manufacturer's instructions (Miltenyi Biotec, San Diego, Calif., 130-091-301). Briefly, CD4^+ T cells were negatively selected before sorting one time with anti-CD25 beads was used to differentiate between effector T cells (CD25^neg) and T^reg (CD25^pos).
Sorted Treg Differentiate the Effects of MTX, 5-FU, and G418 on Selection in Bulk PBMC. Magnetic sorting for CD4 and CD25 expressing PBMC yielded a CD4+ CD25+ population that is widely considered to contain Treg, and a CD25neg population of effector T cells (Teff). See Miyara M. et al., Immunity 2009, 30(6):899-911. These populations were treated with the same concentrations of MTX, 5-FU, G418, or no treatment, as above, for the first 7 days of co-culture with AaPC. After this period of time, co-culture continued without drug by stimulating with AaPC every 7 days until Day 21. Cells were assayed at this time for expression of CD25, CTLA-4, LAP, and IL-2, as before. The experimental outline can be seen in FIG. 15A. A [^3H] thymidine incorporation assay was also performed to determine the effect of each drug on the functionality of propagated Treg.

The next series relates to Teff. Put plainly: [3H] thymidine incorporation suppression assay, treated Treg mixed with untreated Teff. As to conditions: 72 hour suppression assay. Here is the method:
A thymidine incorporation assay was performed with anti-CD3/CD28 and IL-2 used to stimulate each well containing 2*10^5 viable cells. Varying ratios of effector T cells (Teff) to Treg were combined in each well and all wells were run in triplicate in U-bottom 96 well plates. At 48 hours 1 μCi [^3H] Thymidine (Perkin-Elmer, Waltham, Mass.) was added to each well, and 24 hours later the cells were assessed for radioactivity on a Top Count NXT (Perkin-Elmer). Treg mediated suppression of growth was determined by the following equation: (No Treatment Teff [cpm]−(Treg & No Treatment Teff [cpm]))/No Treatment Teff [cpm].
(In general: Incorporation of labelled thymidine or its analogues reports DNA synthesis.)

A further series deals with PBMC. Here is the method: as §1
Drug Selection of TCD4, FoxP3 by MTX Occurs in Part Through Toxicity. In order to determine how MTX contributes to the selection of TCD4, FoxP3, freshly derived PBMC were stimulated with anti-CD3/CD28 antibodies and IL-2 in the presence of cytotoxic drugs or lethal γ-irradiation. After 7 days there was a significant difference in survival markers Annexin V and 7-AAD in stimulated T cells receiving any cytotoxic insult with stimulation (FIG. 1B-I). The selection of TCD4, FoxP3 was not as consistent as cytotoxicity. […] With the exception of ribosomal elongation inhibitor G418, each cytotoxic treatment appeared to increase the percentage of surviving TCD4, FoxP3. See Bar-Nun S. et al., Biochimica et biophysica acta 1983, 741(1):123-127. […] Without wishing to be bound by theory, this pathway is likely related to the reduced proliferation rate of Treg, and appears to be ribosomally mediated as G418 can inhibit this general trend of increasing TCD4, FoxP3 percentage. See Cao M. et al., International journal of radiation biology 2011, 87(1):71-80.

Series [2] deals with TCD4, FoxP3. Put plainly: Depletion of TCD4, FoxP3 in resting, unstimulated PBMC. The text has this:
Representative flow diagrams of resting PBMC in FIG. 14D—upper panel show the loss in expression of FoxP3 for CD4+ T cells after treatment with G418. […] Thus, […] TCD4, FoxP3 are depleted following treatment with aminoglycoside G418.

The next series deals with Jurkat. Description: AThyR transgene selection in electroporated Jurkat, eGFP+ viable cells by PI exclusion. As to conditions: anti-folate toxicity. Here is the method: The Amaxa Nucleofector® II (Lonza, Allendale, N.J.) was used to electroporate both Jurkat and human PBMC. Electroporation of Jurkat cells utilized a modified buffer (Chicaybam et al., Proceedings of the National Academy of Sciences of the United States of America 2002, 99(6):3400-3405) containing 5 mM KCl, 15 mM MgCl2, 120 mM Na2HPO4/NaH2PO4, pH 7.2, and 50 mM DMSO, where 10^6 Jurkat cells per cuvette were electroporated using program T-14 before immediate transfer to CM. The addition of drug occurred 48 hours after electroporation and cell culture remained undisturbed until sampling for gene expression on days 10-12 post electroporation. Human PBMC electroporation followed a previously described protocol (Rushworth et al., supra). […]
To test the enhanced survival of each AThyR, constructs individually expressing DHFR^FS, TYMS^SS, and NeoR were ligated into the same backbone containing Sleeping Beauty (SB) transposable elements upstream of eGFP (FIG. 1B), eGFP was used to track the predominance of surviving genetically-modified T cells. […] Jurkat were assessed for eGFP expression in viable cells by propidium iodide (PI) exclusion on day 10-12 (FIG. 1C). […] Overall survival and mean fluorescence intensity (MFI) of eGFP are also given in FIG. 2AI and AII, respectively.

Entries after “also recorded” stand apart in the source; their conditions may differ. Read-outs that look alike come from different tables or passages of the source.

Regarding `O=c1[nH]cc(F)c(=O)[nH]1` [5-FU, 5-fluorouracil], in the series on TCD4, FoxP3 [1], the “Selection of TCD4, FoxP3 in surviving population at lethal dose” value (from here on “Selection of TCD4, FoxP3”) was “Significant increases”. Besides, in the series on Treg, the “Expression of CD25, CTLA-4, or loss of IL-2” value is on record as “no significant difference” and the “Expression of Treg-specific marker LAP” value is given as “significantly increased”. In the series with Teff, the “Suppression by treated Treg above untreated Treg” value is given as “improved suppression”.
For the compound `Cc1c(N)nc([C@H](CC(N)=O)NC[C@H](N)C(N)=O)nc1C(=O)N[C@H](C(=O)N[C@H](C)[C@@H](O)[C@H](C)C(=O)N[C@H](C(=O)NCCC1=N[C@@H](c2nc(C(=O)NCCCCN=C(N)N)cs2)CS1)[C@@H](C)O)[C@@H](O[C@@H]1O[C@@H](CO)[C@@H](O)[C@H](O)[C@@H]1O[C@H]1O[C@H](CO)[C@@H](O)[C@H](OC(N)=O)[C@@H]1O)c1cnc[nH]1` [Zeocin], in the series with TCD4, FoxP3 [1], the “Selection or depletion of TCD4, FoxP3, dose dependence” value (shortened to “Selection or depletion of TCD4, FoxP3”) is “insignificant”.
For `CO[C@H]1C[C@@H]2CC[C@@H](C)[C@@](O)(O2)C(=O)C(=O)N2CCCC[C@H]2C(=O)O[C@H]([C@H](C)C[C@@H]2CC[C@@H](O)[C@H](OC)C2)CC(=O)[C@H](C)/C=C(\C)[C@@H](O)[C@@H](OC)C(=O)[C@H](C)C[C@H](C)/C=C/C=C/C=C/1C` [Rapamycin], the “Cytotoxicity, dose dependence” value with PBMC was “only occurred at the highest doses”.
For the compound gentamicin, in the series with TCD4, FoxP3 [2] (7 days), the “Depletion of TCD4, FoxP3 in resting PBMC” value is “depletion of TCD4, FoxP3”.
For `CN[C@@H]1[C@@H](O)[C@@H](O[C@@H]2[C@@H](O)[C@H](O[C@H]3O[C@H]([C@@H](C)O)[C@@H](O)[C@H](O)[C@H]3N)[C@@H](N)C[C@H]2N)OC[C@]1(C)O` [G418], the “Cytotoxicity, dose dependence” value in the series on PBMC (thawed PBMC, 7 days) is given as “significantly cytotoxic at all doses tested”. In addition, in the series on TCD4, FoxP3 [1], the “Selection of TCD4, FoxP3” value is recorded as “depleted” and the “Selection or depletion of TCD4, FoxP3” value was “significantly depleted TCD4, FoxP3 at two moderate drug doses; also recorded: Depletion”. In addition, the “Depletion of TCD4, FoxP3 under resting conditions” value in the series on TCD4, FoxP3 [2] (PBMC rested in CM 9 days) is “Significant depletion”. In addition, in the series with TCD4, FoxP3 [2] (resting PBMC, 9 days), the “Depletion of CD4+, FoxP3+, Ki-67+ cells” value is “significant G418 mediated depletion” and the “Depletion of CD4+, FoxP3+, Ki-67neg cells” value was “not significantly depleted”. In addition, the “Surviving TCD4, FoxP3 in the Treg compartment” value in the series with Treg (Day 21, drug for first 7 days) is “persistently decreased surviving Treg”. For the same compound, the “Treg markers (CD25, CTLA-4, decreased IL-2, LAP) with FoxP3 expression” value with Treg (after stimulation on day 21) is reported as “decreased”.
For the compound `CN(Cc1cnc2nc(N)nc(N)c2n1)c1ccc(C(=O)N[C@@H](CCC(=O)O)C(=O)O)cc1` [MTX, methotrexate], the “Relative toxicity to T cells” value with Jurkat is on record as “more toxic to T cells than Pem”. Also, the “Cytotoxicity, dose dependence” value with PBMC is reported as “cytotoxic at all doses tested”. In the series with TCD4, FoxP3 [1], the “Selection of TCD4, FoxP3” value was “Significant increases” and the “Selection or depletion of TCD4, FoxP3” value was “significant elevation of TCD4, FoxP3, at lower doses”. In the series on Treg, the “Expression of CD25, CTLA-4, or loss of IL-2” value is reported as “no significant difference” and the “Expression of Treg-specific marker LAP” value is “significantly increased”. Also, the “Suppression by treated Treg above untreated Treg” value with Teff is listed as “improved suppression”.
